For one assay, the system named is Haemonchus contortus. In words: Method A: Haemonchus contortus L1 larvae, microtitre plate screen. The settings on record: 96 h, read-out: motility inhibition.
The test system of assay [1] is microfilaria of Dirofilaria immitis. The experiment in a line: Method F: microfilaria of Dirofilaria immitis, survival at 24 hours.
[2] abbreviates: survival of microfilaria at 24 hours.

Read-outs that look alike come from different tables or passages of the source.

Regarding `CC(CN1CCN(c2ccc3ccccc3c2)CC1)C(=O)N1CCC(Nc2ccc([N+](=O)[O-])c(C(F)(F)F)c2)CC1` (stereo not shown) [Compound 13, 2-methyl-3-[4-(naphthalen-2-yl)piperazin-1-yl]-1-(4-[[4-nitro-3-(trifluoromethyl)phenyl]amino]piperidin-1-yl)propan-1-one], in the assay on Haemonchus contortus, the inhibition – broadly, the change of the read-out against control, counted positive when it falls – at 5 µg/mL is not below 90%. The EC50 – broadly, the concentration needed to bring the measured effect to its halfway point – in assay [1] (setting [2]) is less than 1 µg/mL.
On the same counts, the results for `O=C(CO[C@H]1CC[C@H](Nc2ccc([N+](=O)[O-])c(C(F)(F)F)c2)CC1)N1CCN(c2ccc3ccccc3c2)CC1` [Compound 14, 1-[4-(naphthalen-2-yl)piperazin-1-yl]-2-[(4-[[4-nitro-3-(trifluoromethyl)phenyl]amino]cyclohexyl)oxy]ethan-1-one] are not below 90% and less than 1 µg/mL.
For `O=C(CO[C@H]1CC[C@H](Nc2ccc([N+](=O)[O-])c(C(F)(F)F)c2)CC1)N1CCN(c2ccc3cc(F)ccc3c2)CC1` [Compound 17, 1-[4-(6-fluoronaphthalen-2-yl)piperazin-1-yl]-2-[(4-[[4-nitro-3-(trifluoromethyl)phenyl]amino]cyclohexyl)oxy]ethan-1-one], the inhibition at 5 µg/mL with Haemonchus contortus was not below 90%. Further, the EC50 in assay [1] (setting [2]) was less than 1 µg/mL.
On to `N#Cc1ccc(NC2CCN(C(=O)CCCN3CCN(c4ccc5cc(F)ccc5c4)CC3)CC2)cc1C(F)(F)F` [Compound 18, 4-[(1-[4-[4-(6-fluoronaphthalen-2-yl)piperazin-1-yl]butanoyl]-piperidin-4-yl)amino]-2-(trifluoromethyl)benzonitrile], for which the inhibition at 5 µg/mL in the assay with Haemonchus contortus is not below 90%. Besides, in assay [1] (setting [2]), the EC50 is less than 1 µg/mL.
Turning to `O=C(CO[C@H]1CC[C@H](Nc2ccc([N+](=O)[O-])c(C(F)(F)F)c2)CC1)N1CCN(C(=O)C2Cc3cc(Cl)ccc3O2)CC1` (stereo partly shown) [Compound 79, 1-[4-[(5-chloro-2,3-dihydro-1-benzofuran-2-yl)carbonyl]piperazin-1-yl]-2-[(4-[[4-nitro-3-(trifluoromethyl)phenyl]amino]cyclohexyl)oxy]ethan-1-one], the inhibition at 5 µg/mL in the assay with Haemonchus contortus was not below 90%. Besides, the EC50 in assay [1] (setting [2]) was less than 5 µg/mL.
On to `O=C(CO[C@H]1CC[C@H](Nc2ccc([N+](=O)[O-])c(C(F)(F)F)c2)CC1)N1CCN(C(=O)C2Cc3cc(C(F)(F)F)ccc3O2)CC1` (stereo partly shown) [Compound 81, 2-[4-(4-nitro-3-trifluoromethyl-phenylamino)-cyclohexyloxy]-1-[4-(5-trifluoromethyl-2,3-dihydro-benzofuran-2-carbonyl)-piperazin-1-yl]-ethanone], for which, in the assay on Haemonchus contortus, the inhibition at 5 µg/mL was not below 90%. This compound showed an EC50 in assay [1] (setting [2]) of less than 1 µg/mL.
On the same counts, the results for `N#Cc1ccc(N[C@H]2CC[C@H](OCC(=O)N3CCN(CC4Cc5cc(F)ccc5O4)CC3)CC2)cc1C(F)(F)F` (stereo partly shown) [Compound 83] are not below 90% and less than 5 µg/mL.
For `N#Cc1ccc(NC2CCN(C(=O)CCCN3CCN(c4ccc5cc(C(F)(F)F)ccc5n4)CC3)CC2)cc1C(F)(F)F` [Compound 95, 2-(trifluoromethyl)-4-[[1-(4-[4-[6-(trifluoromethyl)quinolin-2-yl]piperazin-1-yl]butanoyl)piperidin-4-yl]amino]benzonitrile], the EC50 in assay [1] (setting [2]) was less than 5 µg/mL.
Still for that read-out and setting: the value for `Cc1cc(N2CCN(CC(C)C(=O)N3CCC(Nc4ccc([N+](=O)[O-])c(C(F)(F)F)c4)CC3)CC2)nc2ccccc12` (stereo not shown) [Compound 101, 2-methyl-3-[4-(4-methylquinolin-2-yl)piperazin-1-yl]-1-(4-[[4-nitro-3-(trifluoromethyl)phenyl]amino]piperidin-1-yl)propan-1-one] was less than 1 µg/mL.
`Cc1cc(N2CCN(CC(C)C(=O)N3CCC(Nc4ccc([N+](=O)[O-])c(C(F)(F)F)c4)CC3)CC2)nc2ccc(F)cc12` (stereo not shown) [Compound 102, 3-[4-(6-fluoro-4-methylquinolin-2-yl)piperazin-1-yl]-2-methyl-1-(4-[[4-nitro-3-(trifluoromethyl)phenyl]amino]piperidin-1-yl)propan-1-one]: the EC50 in assay [1] (setting [2]) was less than 1 µg/mL.
On the same count and under the same terms, the value for `O=C(COc1ccc2ccc([N+](=O)[O-])c(C(F)(F)F)c2c1)N1CCN(c2ccc(Cl)cn2)CC1` [Compound 114, 1-[4-(5-chloropyridin-2-yl)piperazin-1-yl]-2-[[7-nitro-8-(trifluoromethyl)naphthalen-2-yl]oxy]ethan-1-one] was less than 5 µg/mL; that for `O=C(CO[C@H]1CC[C@H](Nc2ccc([N+](=O)[O-])c(C(F)(F)F)c2)CC1)N1CCN(c2ccnc3ccccc23)CC1` [Compound 160, 2-[(4-[[4-nitro-3-(trifluoromethyl)phenyl]amino]cyclohexyl)oxy]-1-[4-(quinolin-4-yl)piperazin-1-yl]ethan-1-one] was less than 5 µg/mL; that for `O=C(CO[C@H]1CC[C@H](Nc2ccc([N+](=O)[O-])c(C(F)(F)F)c2)CC1)N1CCN(c2ccc(Cl)c3ccccc23)CC1` [Compound 161, 1-[4-(4-chloronaphthalen-1-yl)piperazin-1-yl]-2-[(4-[[4-nitro-3-(trifluoromethyl)phenyl]amino]cyclohe-xyl)oxy]ethan-1-one] was less than 5 µg/mL.
Same read-out and setting: the value for `O=C(CO[C@H]1CC[C@H](Nc2ccc([N+](=O)[O-])c(C(F)(F)F)c2)CC1)N1CCc2ccccc2C1` [Compound 192, 2-[[4-[[4-nitro-3-(trifluoromethyl)phenyl]amino]cyclohexyl]oxy]-1-(1,2,3,4-tetrahydroisoquinolin-2-yl)ethan-1-one] was less than 1 µg/mL; that for `O=C(CO[C@H]1CC[C@H](Nc2ccc([N+](=O)[O-])c(C(F)(F)F)c2)CC1)N1CCc2cc(F)ccc2C1` [Compound 193, 1-(6-fluoro-1,2,3,4-tetrahydroisoquinolin-2-yl)-2-[[4-[[4-nitro-3-(trifluoromethyl)phenyl]amino]cyclohexyl]oxy]ethan-1-one] was less than 1 µg/mL.
As to `O=C(CO[C@H]1CC[C@H](Nc2ccc([N+](=O)[O-])c(C(F)(F)F)c2)CC1)N1CCc2cc(Cl)ccc2C1` [Compound 195, 1-(6-chloro-1,2,3,4-tetrahydroisoquinolin-2-yl)-2-[[4-[[4-nitro-3-(trifluoromethyl)phenyl]amino]cyclohexyl]oxy]ethan-1-one], the EC50 in assay [1] is less than 1 µg/mL.
In the case of `O=C(CO[C@H]1CC[C@H](Nc2ccc([N+](=O)[O-])c(C(F)(F)F)c2)CC1)Nc1ccc2cc(C(F)(F)F)ccc2n1` [Compound 210, 2-[[4-[[4-nitro-3-(trifluoromethyl)phenyl]amino]cyclohexyl]oxy]-N-[6-(trifluoromethyl)quino-lin-2-yl]acetamide], in assay [1] (setting [2]), the EC50 was less than 1 µg/mL.
Same read-out and setting: to `O=C(NCCOc1ccc(Nc2ccc([N+](=O)[O-])c(C(F)(F)F)c2)cc1)C(=O)NCc1cc2cc(F)ccc2o1` [Compound 229, N^1-((5-fluorobenzofuran-2-yl)methyl)-N^2-(2-(4-(4-nitro-3-(trifluoromethyl)phenylamino)phenoxy)ethyl)oxalamide] belongs less than 1 µg/mL; to `O=C(NCCOc1ccc(Nc2ccc([N+](=O)[O-])c(C(F)(F)F)c2)cc1)C(=O)NCc1cc2cc(Cl)ccc2o1` [Compound 230, N^1-((5-chlorobenzofuran-2-yl)methyl)-N^2-(2-(4-(4-nitro-3-(trifluoromethyl)phenylamino)phenoxy)ethyl)oxalamide], less than 5 µg/mL.
Consider `O=C(NCCOc1ccc(Nc2ccc([N+](=O)[O-])c(C(F)(F)F)c2)cc1)C(=O)NCc1cc2cc(C(F)(F)F)ccc2o1` [Compound 231], for which, in assay [1] (setting [2]), the EC50 was less than 5 µg/mL.
The same measure, in the same setting: to `CN(C(=O)C(=O)NCCO[C@H]1CC[C@H](Nc2ccc([N+](=O)[O-])c(C(F)(F)F)c2)CC1)c1ccc2cc(F)ccc2n1` [Compound 242] belongs less than 1 µg/mL.

Values taken from US9249102B2 (priority 2012, dated 2016).
